From patent US20050004185A1, “Polyene polyketides, processes for their production and their use as pharmaceuticals” (priority 2003, published 2005)
Values after ≈ are worked out from the molar mass of the structure shown.

Columns and labels:
LOX IMVI = assay: In vitro cytotoxic efficacy (MTT); format: cell-based; conditions: Homo sapiens, Melanoma, 96 h
TK-10 = assay: In vitro cytotoxic efficacy (MTT); format: cell-based; conditions: Homo sapiens, Renal, 96 h
A549/ATCC = assay: In vitro cytotoxic efficacy (MTT); format: cell-based; conditions: Homo sapiens, A549, 96 h
CAKI-1 = assay: In vitro cytotoxic efficacy (MTT); format: cell-based; conditions: Homo sapiens, Renal, 96 h
KM12 = assay: In vitro cytotoxic efficacy (MTT); format: cell-based; conditions: Homo sapiens, Colon, 96 h
C. albicans (Calb) = assay: MIC broth microdilution assay (NCCLS M27-A); format: cell-based; conditions: Candida albicans, 48 hrs, read-out: Minimal Inhibitory Concentrations
NCI-H460 = assay: In vitro cytotoxic efficacy (MTT); format: cell-based; conditions: Homo sapiens, NCI-H460, 96 h
S. cerevisiae (Scer) = assay: MIC broth microdilution assay (NCCLS M27-A); conditions: Saccharomyces cerevisiae, 48 h, read-out: Minimal Inhibitory Concentrations
SNB-75 = assay: In vitro cytotoxic efficacy (MTT); format: cell-based; conditions: Homo sapiens, CNS, 96 h
EKVX = assay: In vitro cytotoxic efficacy (MTT); format: cell-based; conditions: Homo sapiens, Non-small cell lung, 96 h
786-0 = assay: In vitro cytotoxic efficacy (MTT); format: cell-based; conditions: Homo sapiens, Renal, 96 h
SK-MEL-5 = assay: In vitro cytotoxic efficacy (MTT); format: cell-based; conditions: Homo sapiens, Melanoma, 96 h
RXF 393 = assay: In vitro cytotoxic efficacy (MTT); format: cell-based; conditions: Homo sapiens, Renal, 96 h
C. albicans (Ctro) = assay: MIC broth microdilution assay (NCCLS M27-A); format: cell-based; conditions: Candida albicans, 48 h, read-out: Minimal Inhibitory Concentrations
NCI/ADR-RES = assay: In vitro cytotoxic efficacy (MTT); format: cell-based; conditions: Homo sapiens, Breast, 96 h
COLO 205 = assay: In vitro cytotoxic efficacy (MTT); format: cell-based; conditions: Homo sapiens, Colon, 96 h
Candida sp. (Cflu) = assay: MIC broth microdilution assay (NCCLS M27-A); format: cell-based; conditions: 48 hrs, read-out: Minimal Inhibitory Concentrations
HCT-116 = assay: In vitro cytotoxic efficacy (MTT); conditions: Homo sapiens, HCT-116, 96 h
MDA-MB-435 = assay: In vitro cytotoxic efficacy (MTT); format: cell-based; conditions: Homo sapiens, Breast, 96 h
SN12C = assay: In vitro cytotoxic efficacy (MTT); format: cell-based; conditions: Homo sapiens, Renal, 96 h
C. glabrata (Cgla) = assay: MIC broth microdilution assay (NCCLS M27-A); format: cell-based; conditions: Nakaseomyces glabratus, 48 hrs, read-out: Minimal Inhibitory Concentrations
SW-620 = assay: In vitro cytotoxic efficacy (MTT); format: cell-based; conditions: Homo sapiens, Colon, 96 h
RPMI-8226 = assay: In vitro cytotoxic efficacy (MTT); format: cell-based; conditions: Homo sapiens, Leukemia, 96 h
U-251 = assay: In vitro cytotoxic efficacy (MTT); format: cell-based; conditions: Homo sapiens, CNS, 96 h
SF-268 = assay: In vitro cytotoxic efficacy (MTT); format: cell-based; conditions: Homo sapiens, CNS, 96 h
OVCAR-5 = assay: In vitro cytotoxic efficacy (MTT); format: cell-based; conditions: Homo sapiens, Ovarian, 96 h
SF-295 = assay: In vitro cytotoxic efficacy (MTT); format: cell-based; conditions: Homo sapiens, CNS, 96 h
IGROV1 = assay: In vitro cytotoxic efficacy (MTT); format: cell-based; conditions: Homo sapiens, IGROV-1, Ovarian, 96 h
HL-60 (TB) = assay: In vitro cytotoxic efficacy (MTT); format: cell-based; conditions: Homo sapiens, Leukemia, 96 h
OVCAR-8 = assay: In vitro cytotoxic efficacy (MTT); format: cell-based; conditions: Homo sapiens, Ovarian, 96 h
A498 = assay: In vitro cytotoxic efficacy (MTT); conditions: Homo sapiens, A498, 96 h
MDA-MB-231/ATCC = assay: In vitro cytotoxic efficacy (MTT); conditions: Homo sapiens, MDA-MB-231, 96 h
UACC = assay: In vitro cytotoxic efficacy (MTT); format: cell-based; conditions: 96 h
HOP-92 = assay: In vitro cytotoxic efficacy (MTT); format: cell-based; conditions: Homo sapiens, Non-small cell lung, 96 h
K562 = assay: In vitro cytotoxic efficacy (MTT); format: cell-based; conditions: Homo sapiens, Leukemia, 96 h
NCI-H522 = assay: In vitro cytotoxic efficacy (MTT); format: cell-based; conditions: Homo sapiens, Non-small cell lung, 96 h
SK-MEL-2 = assay: In vitro cytotoxic efficacy (MTT); format: cell-based; conditions: Homo sapiens, Melanoma, 96 h
MOLT-4 = assay: In vitro cytotoxic efficacy (MTT); format: cell-based; conditions: Homo sapiens, Leukemia, 96 h
UACC-257 = assay: In vitro cytotoxic efficacy (MTT); format: cell-based; conditions: Homo sapiens, Melanoma, 96 h
HT29 = assay: In vitro cytotoxic efficacy (MTT); format: cell-based; conditions: Homo sapiens, HT-29, 96 h
SF-539 = assay: In vitro cytotoxic efficacy (MTT); format: cell-based; conditions: Homo sapiens, CNS, 96 h
SR = assay: In vitro cytotoxic efficacy (MTT); format: cell-based; conditions: Homo sapiens, Leukemia, 96 h
HCT-15 = assay: In vitro cytotoxic efficacy (MTT); format: cell-based; conditions: Homo sapiens, Colon, 96 h
MCF7 = assay: In vitro cytotoxic efficacy (MTT); format: cell-based; conditions: Homo sapiens, MCF7, 96 h
SNB-19 = assay: In vitro cytotoxic efficacy (MTT); format: cell-based; conditions: Homo sapiens, SNB-19, 96 h
SK-OV3 = assay: In vitro cytotoxic efficacy (MTT); format: cell-based; conditions: Homo sapiens, SK-OV-3, 96 h
T-47D = assay: In vitro cytotoxic efficacy (MTT); format: cell-based; conditions: Homo sapiens, T47D, Breast, 96 h
PC-3 = assay: In vitro cytotoxic efficacy (MTT); conditions: Homo sapiens, PC-3, 96 h
HCC-2998 = assay: In vitro cytotoxic efficacy (MTT); format: cell-based; conditions: Homo sapiens, Colon, 96 h
SK-MEL-28 = assay: In vitro cytotoxic efficacy (MTT); format: cell-based; conditions: Homo sapiens, Melanoma, 96 h
M14 = assay: In vitro cytotoxic efficacy (MTT); format: cell-based; conditions: Homo sapiens, Melanoma, 96 h
UO-31 = assay: In vitro cytotoxic efficacy (MTT); format: cell-based; conditions: Homo sapiens, Renal, 96 h
OVCAR-4 = assay: In vitro cytotoxic efficacy (MTT); format: cell-based; conditions: Homo sapiens, Ovarian, 96 h
CCRF-CEM = assay: In vitro cytotoxic efficacy (MTT); format: cell-based; conditions: Homo sapiens, Leukemia, 96 h
BT-549 = assay: In vitro cytotoxic efficacy (MTT); format: cell-based; conditions: Homo sapiens, Breast, 96 h

C\C(=C/C=C/C=C/CC/C=C/C(C)C(O)C(C)C(O)/C=C/C=C/C=C/C=C/C=C/C=C/CC(O)C(C)C(=O)CC(O)CC(O)/C=C/CC(O)CC(O)CC(O)/C=C/CC(O)CC(O)/C=C/CC(O)CC(O)CCCNC(=N)N)C(=O)O (stereo not shown) [Compound 2]
IC50 (LOX IMVI): 6 µM | IC50 (TK-10): 7 µM | IC50 (A549/ATCC): 7 µM | IC50 (CAKI-1): 2 µM | IC50 (KM12): 0.8 µM | MIC (C. albicans (Calb)): 4 µg/mL (≈ 3.51 µM) | IC50 (NCI-H460): 2 µM | MIC (S. cerevisiae (Scer)): 4 µg/mL (≈ 3.51 µM) | IC50 (SNB-75): 10 µM | IC50 (EKVX): 8 µM | IC50 (786-0): 8 µM | IC50 (SK-MEL-5): 2 µM | IC50 (RXF 393): 0.4 µM | MIC (C. albicans (Ctro)): 4 µg/mL (≈ 3.51 µM) | IC50 (NCI/ADR-RES): 24 µM | IC50 (COLO 205): 7 µM | MIC (Candida sp. (Cflu)): 8 µg/mL (≈ 7.03 µM) | IC50 (HCT-116): 2 µM | IC50 (MDA-MB-435): 0.9 µM | IC50 (SN12C): 7 µM | MIC (C. glabrata (Cgla)): 4 µg/mL (≈ 3.51 µM) | IC50 (SW-620): 1 µM | IC50 (RPMI-8226): 6 µM | IC50 (U-251): 6 µM | IC50 (SF-268): 4 µM | IC50 (OVCAR-5): 6 µM | IC50 (SF-295): 4 µM | IC50 (IGROV1): 0.6 µM | IC50 (HL-60 (TB)): 17 µM | IC50 (OVCAR-8): 5 µM | IC50 (A498): 6 µM | IC50 (MDA-MB-231/ATCC): 9 µM | IC50 (UACC): 8 µM | IC50 (HOP-92): > 25 µM | IC50 (K562): 8 µM | IC50 (NCI-H522): 2 µM | IC50 (SK-MEL-2): 3 µM | IC50 (MOLT-4): > 25 µM | IC50 (UACC-257): 5 µM | IC50 (HT29): 4 µM | IC50 (SF-539): 3 µM | IC50 (SR): 1 µM | IC50 (HCT-15): 8 µM | IC50 (MCF7): 0.3 µM | IC50 (SNB-19): > 25 µM | IC50 (SK-OV3): > 25 µM | IC50 (T-47D): > 25 µM | IC50 (PC-3): 4 µM | IC50 (HCC-2998): 0.1 µM | IC50 (SK-MEL-28): 13 µM | IC50 (M14): 0.5 µM | IC50 (UO-31): 8 µM | IC50 (OVCAR-4): > 25 µM | IC50 (CCRF-CEM): > 25 µM | IC50 (BT-549): 0.9 µM
